Experimental data taken from patent US8377943B2, “2,4-diaminopyrimidine derivates as PTK2-inhibitors for the treatment of abnormal cell growth” (Boehringer Ingelheim International GmbH, priority 2008, dated 2013).

Columns and labels:
PTK2 = molecular target: T1, PTK2 (Homo sapiens, UniProt Q05397); assay: PTK2 Enzyme Test (DELFIA assay, poly-Glu-Tyr substrate); type: biochemical; conditions: active PTK2 enzyme, 50 μM ATP in ATP Mix, 1 h pre-incubation
T1 construct: purchased Invitrogen PV3832
Summary of the method: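 Active PTK2 (0.01 μg/well) pre-incubated 1 h at RT with compound, then reacted 1 h with 50 μM ATP (in ATP mix) and poly(Glu,Tyr) 4:1 substrate, 2% DMSO final, pH 7.5. Biotinylated product captured on streptavidin, detected by Eu-PY20 time-resolved fluorescence; IC50 by sigmoidal fit, variable Hill slope.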

[1] = molecular target: T2, PTK2-phosphorylation at tyrosine 397 (pY397) (Homo sapiens, UniProt Q05397); assay: Phospho-PTK2 (pY397) Assay in PC-3 cells; type: cell-based; conditions: PC-3 prostate carcinoma cells, 2 h incubation; read-out: PC3pPTK2 Y397 EC50
T2 construct: endogenous in cells; host or cells: PC-3 (ATCC CRL-1435)
Summary of the method: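 PC-3 cells (2×10^4/well, F12K + 10% FCS) exposed to compound (about 0.8 nM–50 μM, 1% DMSO final) for 2 h at 37 °C. Then formaldehyde-fixed and immunostained with anti-pY397 PTK2 (total PTK2 control) and an HRP secondary. EC50 from sigmoidal fit with variable Hill slope.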

T1 sequence (Q05397 whole entry): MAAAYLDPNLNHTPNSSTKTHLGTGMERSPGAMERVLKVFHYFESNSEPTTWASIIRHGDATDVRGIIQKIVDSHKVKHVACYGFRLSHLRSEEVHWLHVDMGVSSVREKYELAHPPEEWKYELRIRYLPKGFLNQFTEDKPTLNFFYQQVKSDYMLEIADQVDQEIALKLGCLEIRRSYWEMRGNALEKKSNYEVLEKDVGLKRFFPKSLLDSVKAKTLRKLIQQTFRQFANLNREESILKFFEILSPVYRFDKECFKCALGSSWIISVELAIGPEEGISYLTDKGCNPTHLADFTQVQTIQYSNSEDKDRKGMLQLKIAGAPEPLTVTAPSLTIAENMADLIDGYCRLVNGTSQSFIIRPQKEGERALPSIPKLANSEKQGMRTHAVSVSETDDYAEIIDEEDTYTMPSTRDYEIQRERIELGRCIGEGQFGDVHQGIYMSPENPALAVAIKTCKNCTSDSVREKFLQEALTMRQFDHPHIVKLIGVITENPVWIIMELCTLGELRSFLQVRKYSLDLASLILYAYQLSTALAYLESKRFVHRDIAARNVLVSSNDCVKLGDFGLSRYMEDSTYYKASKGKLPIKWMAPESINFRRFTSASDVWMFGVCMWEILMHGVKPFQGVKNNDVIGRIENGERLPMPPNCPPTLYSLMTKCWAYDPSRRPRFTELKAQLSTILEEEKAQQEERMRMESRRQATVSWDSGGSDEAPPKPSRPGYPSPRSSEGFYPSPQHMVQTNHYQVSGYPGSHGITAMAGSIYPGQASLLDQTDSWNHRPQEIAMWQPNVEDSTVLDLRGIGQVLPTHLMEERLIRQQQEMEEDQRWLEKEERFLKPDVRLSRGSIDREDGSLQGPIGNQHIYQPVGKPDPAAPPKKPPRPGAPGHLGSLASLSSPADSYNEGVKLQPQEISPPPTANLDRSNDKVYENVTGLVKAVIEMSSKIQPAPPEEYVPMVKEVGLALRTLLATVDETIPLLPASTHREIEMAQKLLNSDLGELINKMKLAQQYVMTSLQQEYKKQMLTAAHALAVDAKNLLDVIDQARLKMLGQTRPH
T2 sequence (Q05397 whole entry): as above

Row | IC50 (PTK2) [nM] | EC50 [1] [nM] | SMILES
1 | 5 | 3 | COc1cc(C(=O)NC(C)(C)C)c(F)cc1Nc1ncc(C(F)(F)F)c(NCc2ccc(C)cc2N(C)S(C)(=O)=O)n1 [Example 113]
2 | 4 | 3 | COc1cc(C(=O)N[C@H]2CC[C@H](N3C[C@@H](C)O[C@@H](C)C3)CC2)ccc1Nc1ncc(C(F)(F)F)c(NCc2ccc(C)cc2N(C)S(C)(=O)=O)n1 [Example 114]
3 | 5 | 3 | CCCNC(=O)c1ccc(Nc2ncc(C(F)(F)F)c(NCc3ccc(F)cc3N(C)S(C)(=O)=O)n2)c(OC)c1 [Example 115]
4 | 3 | 3 | COc1cc(C(=O)N[C@@H]2CCCN(C3COC3)C2)ccc1Nc1ncc(C(F)(F)F)c(NCc2ccc(C)cc2N(C)S(C)(=O)=O)n1 [Example 116]
5 | 0.85 | 3 | CC(=O)Nc1ccc(Nc2ncc(C(F)(F)F)c(NCc3ccc(C)cc3N(C)S(C)(=O)=O)n2)cc1C [Example 117]
6 | 1 | 3 | COc1ccc(CNc2nc(Nc3ccc(NC(C)=O)c(C)c3)ncc2C(F)(F)F)c(N(C)S(C)(=O)=O)c1 [Example 118]
7 | 3 | 3 | COc1cc(C(=O)N[C@H]2CCN(C)C[C@H]2F)ccc1Nc1ncc(C(F)(F)F)c(NCc2ccc(C)cc2N(C)S(C)(=O)=O)n1 [Example 119]
8 | 3 | 3 | COc1cc(C(=O)N[C@H]2CCN(C)C2)c(Cl)cc1Nc1ncc(C(F)(F)F)c(NCc2ccc(C)cc2N(C)S(C)(=O)=O)n1 [Example 120]
9 | 2 | 3 | CCc1cc(C(=O)NC)ccc1Nc1ncc(C(F)(F)F)c(NCc2ccc(C)cc2N(C)S(C)(=O)=O)n1 [Example 121]
10 | 2 | 3 | CCc1cc(C(=O)NOC)ccc1Nc1ncc(C(F)(F)F)c(NCc2ccc(C)cc2N(C)S(C)(=O)=O)n1 [Example 122]
11 | 9 | 3 | COc1cc(C(=O)N(C)C)c(C)cc1Nc1ncc(C(F)(F)F)c(NCc2ccc(C)cc2N(C)S(C)(=O)=O)n1 [Example 123]
12 | 5 | 3 | COC(=O)Nc1cc(OC)c(Nc2ncc(C(F)(F)F)c(NCc3ccc(C)cc3N(C)S(C)(=O)=O)n2)cc1C [Example 124]
13 | 5 | 3 | COC(=O)Nc1cc(OC)c(Nc2ncc(C(F)(F)F)c(NCc3ccc(OC)cc3N(C)S(C)(=O)=O)n2)cc1C [Example 125]
14 | 6 | 3 | COC(=O)Nc1cc(OC)c(Nc2ncc(C(F)(F)F)c(NCc3ccc(F)cc3N(C)S(C)(=O)=O)n2)cc1C [Example 126]
